Reference: publication PMC5762309 (Oncotarget, 2017)
Read-outs that look alike come from different tables or passages of the source.

Columns and labels:
ACVR2B = molecular target: T1, ACVR2B (Homo sapiens, UniProt Q13705); assay: KINOMEScan; format: binding; design: dose or concentration left out as unconfirmed
T1 construct: purchased DiscoverX KINOMEscan

BTK = molecular target: T2, BTK (Homo sapiens, UniProt Q06187); assay: KINOMEScan; format: binding; design: dose or concentration left out as unconfirmed
T2 construct: purchased DiscoverX KINOMEscan

CDK11 = molecular target: T3, CDK11 (Homo sapiens, UniProt Q9BWU1); assay: KINOMEScan; format: binding; design: dose or concentration left out as unconfirmed
T3 construct: purchased DiscoverX KINOMEscan

DLK = molecular target: T4, DLK (Homo sapiens, UniProt Q12852); assay: KINOMEScan; format: binding; design: dose or concentration left out as unconfirmed
T4 construct: purchased DiscoverX KINOMEscan

EGFR = molecular target: T5, EGFR (Homo sapiens, UniProt P00533); assay: KINOMEScan; format: binding; design: dose or concentration left out as unconfirmed
T5 construct: purchased DiscoverX KINOMEscan

EGFR(G719C) = molecular target: T6, EGFR(G719C) (Homo sapiens, UniProt P00533, G719C); assay: KINOMEScan; format: binding; design: dose or concentration left out as unconfirmed
T6 construct: purchased DiscoverX KINOMEscan

EGFR(G719S) = molecular target: T7, EGFR(G719S) (Homo sapiens, UniProt P00533, G719S); assay: KINOMEScan; format: binding; design: dose or concentration left out as unconfirmed
T7 construct: purchased DiscoverX KINOMEscan

EGFR(L747-T751del,Sins) = assay: KINOMEScan; format: binding; design: dose or concentration left out as unconfirmed
EGFR(L858R,T790M) = molecular target: T8, EGFR(L858R,T790M) (Homo sapiens, UniProt P00533, L858R/T790M); assay: KINOMEScan; format: binding
T8 construct: purchased DiscoverX KINOMEscan

EGFR(S752-I759del) = molecular target: T9, EGFR(S752-I759del) (Homo sapiens, UniProt P00533, DEL752-759); assay: KINOMEScan; format: binding; design: dose or concentration left out as unconfirmed
T9 construct: purchased DiscoverX KINOMEscan

MARK4 = molecular target: T10, MARK4 (Homo sapiens, UniProt Q96L34); assay: KINOMEScan; format: binding; design: dose or concentration left out as unconfirmed
T10 construct: purchased DiscoverX KINOMEscan

MLK3 = molecular target: T11, MLK3 (Homo sapiens, UniProt Q16584); assay: KINOMEScan; format: binding; design: dose or concentration left out as unconfirmed
T11 construct: purchased DiscoverX KINOMEscan

MST3 = molecular target: T12, MST3 (Homo sapiens, UniProt Q9Y6E0); assay: KINOMEScan; format: binding; design: dose or concentration left out as unconfirmed
T12 construct: purchased DiscoverX KINOMEscan

PKMYT1 = molecular target: T13, PKMYT1 (Homo sapiens, UniProt Q99640); assay: KINOMEScan; format: binding; design: dose or concentration left out as unconfirmed
T13 construct: purchased DiscoverX KINOMEscan

[1] = molecular target: T14, RSK4(Kin.Dom.2-C-terminal) (Homo sapiens, UniProt Q9UK32); assay: KINOMEScan; format: binding
T14 construct: RSK4(Kin.Dom.2-C-terminal); purchased DiscoverX KINOMEscan

SIK = molecular target: T15, SIK (Homo sapiens, UniProt P57059); assay: KINOMEScan; format: binding; design: dose or concentration left out as unconfirmed
T15 construct: purchased DiscoverX KINOMEscan

ULK3 = molecular target: T16, ULK3 (Homo sapiens, UniProt Q6PHR2); assay: KINOMEScan; format: binding; design: dose or concentration left out as unconfirmed
T16 construct: purchased DiscoverX KINOMEscan

WNK1 = molecular target: T17, WNK1 (Homo sapiens, UniProt Q9H4A3); assay: KINOMEScan; format: binding; design: dose or concentration left out as unconfirmed
T17 construct: purchased DiscoverX KINOMEscan

KIT V559D [2] = molecular target: T18, KIT V559D (Homo sapiens, UniProt P10721, V559D); assay: KIT auto-phosphorylation in KIT V559D overexpressed Colo320DM cells; format: cell-based; design: expressed in transfected cells; host or cells: Colo320DM (transient)
Source text: In order to better define CHMFL-KIT-031’s inhibitory effect against KIT V559D mutant, we then tested it with purified KIT wt/V559D kinase protein by ADP-Glo assay (Figure 2A). […] We also transformed and overexpressed KIT V559D transiently into Colo320DM cells which express wt KIT kinase and tested CHMFL-KIT-031’s inhibitory effects for the auto-phosphorylation of KIT Y703, 719 and Y823 sites.
KIT-V559D kinase domain coding sequence was inserted into a pMSCV puro vector (Clontech) that was modified by inserting a 3×FLAG sequence at the 3’ end of the multicloning sites. The vector was transiently transfected into Colo320DM cells with TransIN™EL transfection reagent.
Target sequence in this assay (P10721 546-976 V559D limits assumed): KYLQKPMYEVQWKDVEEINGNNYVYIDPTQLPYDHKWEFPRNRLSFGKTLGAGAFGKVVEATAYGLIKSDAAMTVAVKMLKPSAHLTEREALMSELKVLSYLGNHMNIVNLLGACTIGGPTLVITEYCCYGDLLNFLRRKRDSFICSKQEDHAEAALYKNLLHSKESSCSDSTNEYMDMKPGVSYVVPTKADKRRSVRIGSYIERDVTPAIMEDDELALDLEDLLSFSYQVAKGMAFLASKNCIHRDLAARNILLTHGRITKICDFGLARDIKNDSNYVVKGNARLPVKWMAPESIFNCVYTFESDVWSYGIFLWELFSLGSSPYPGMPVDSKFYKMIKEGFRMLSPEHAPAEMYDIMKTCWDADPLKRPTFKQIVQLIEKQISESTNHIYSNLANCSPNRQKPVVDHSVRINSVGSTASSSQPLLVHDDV

KIT wt = KIT wt (Homo sapiens, UniProt P10721); assay: Kd determination by MST; format: binding; design: wt KIT residues 544-935 with a His tag; His tag; made in house; host or cells: SF9 insect cells (baculovirus); conditions: purified protein
KIT V559D [3] = molecular target: T18, KIT V559D; assay: Kd determination by MST; format: binding; design: Kit V559D encoding residues 545-976 with His tag; His tag; made in house; host or cells: SF9 insect cells (baculovirus); conditions: purified protein

T9 sequence (P00533 with tags, fused parts or gaps DEL752-759 limits assumed): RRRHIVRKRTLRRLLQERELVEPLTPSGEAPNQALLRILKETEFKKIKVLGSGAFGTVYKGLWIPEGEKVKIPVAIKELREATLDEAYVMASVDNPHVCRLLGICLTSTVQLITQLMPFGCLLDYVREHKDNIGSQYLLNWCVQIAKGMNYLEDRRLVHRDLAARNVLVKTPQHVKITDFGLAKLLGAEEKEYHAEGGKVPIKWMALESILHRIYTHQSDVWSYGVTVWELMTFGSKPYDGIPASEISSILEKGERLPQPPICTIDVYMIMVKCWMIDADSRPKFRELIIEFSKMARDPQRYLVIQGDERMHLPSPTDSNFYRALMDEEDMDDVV
T10 sequence (Q96L34 whole entry): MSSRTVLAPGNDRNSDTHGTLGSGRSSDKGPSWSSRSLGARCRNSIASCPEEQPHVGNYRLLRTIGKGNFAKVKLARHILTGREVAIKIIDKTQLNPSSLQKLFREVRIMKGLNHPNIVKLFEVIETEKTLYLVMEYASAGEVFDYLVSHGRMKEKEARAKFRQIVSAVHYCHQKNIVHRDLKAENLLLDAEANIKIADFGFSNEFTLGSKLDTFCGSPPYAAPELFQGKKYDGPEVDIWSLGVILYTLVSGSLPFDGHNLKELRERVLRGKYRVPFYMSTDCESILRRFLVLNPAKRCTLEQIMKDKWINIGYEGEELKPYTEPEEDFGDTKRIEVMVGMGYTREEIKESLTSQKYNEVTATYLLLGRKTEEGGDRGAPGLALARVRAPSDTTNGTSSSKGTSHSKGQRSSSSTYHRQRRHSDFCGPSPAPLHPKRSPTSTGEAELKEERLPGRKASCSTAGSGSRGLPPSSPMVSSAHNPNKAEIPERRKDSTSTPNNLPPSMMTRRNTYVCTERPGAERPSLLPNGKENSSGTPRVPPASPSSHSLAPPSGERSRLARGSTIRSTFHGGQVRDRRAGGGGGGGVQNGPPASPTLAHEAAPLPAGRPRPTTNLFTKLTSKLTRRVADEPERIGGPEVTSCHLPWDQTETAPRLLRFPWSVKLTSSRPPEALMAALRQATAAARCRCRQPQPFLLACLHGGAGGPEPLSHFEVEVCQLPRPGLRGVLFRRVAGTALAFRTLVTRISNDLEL
T13 sequence (Q99640 whole entry): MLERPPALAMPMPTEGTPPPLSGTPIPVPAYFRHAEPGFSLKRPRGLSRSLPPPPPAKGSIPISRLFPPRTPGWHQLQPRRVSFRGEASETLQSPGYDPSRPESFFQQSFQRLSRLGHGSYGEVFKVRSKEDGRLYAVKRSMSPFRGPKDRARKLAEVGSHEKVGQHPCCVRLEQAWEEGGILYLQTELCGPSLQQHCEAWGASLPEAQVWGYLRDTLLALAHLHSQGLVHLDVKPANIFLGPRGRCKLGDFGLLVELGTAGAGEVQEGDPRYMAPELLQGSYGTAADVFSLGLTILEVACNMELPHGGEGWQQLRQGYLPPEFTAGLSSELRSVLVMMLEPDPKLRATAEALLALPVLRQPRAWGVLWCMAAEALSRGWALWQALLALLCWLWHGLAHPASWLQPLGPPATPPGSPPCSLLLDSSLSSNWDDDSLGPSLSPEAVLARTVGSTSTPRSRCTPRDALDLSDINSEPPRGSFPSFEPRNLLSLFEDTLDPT
T1 sequence (Q13705 19-512): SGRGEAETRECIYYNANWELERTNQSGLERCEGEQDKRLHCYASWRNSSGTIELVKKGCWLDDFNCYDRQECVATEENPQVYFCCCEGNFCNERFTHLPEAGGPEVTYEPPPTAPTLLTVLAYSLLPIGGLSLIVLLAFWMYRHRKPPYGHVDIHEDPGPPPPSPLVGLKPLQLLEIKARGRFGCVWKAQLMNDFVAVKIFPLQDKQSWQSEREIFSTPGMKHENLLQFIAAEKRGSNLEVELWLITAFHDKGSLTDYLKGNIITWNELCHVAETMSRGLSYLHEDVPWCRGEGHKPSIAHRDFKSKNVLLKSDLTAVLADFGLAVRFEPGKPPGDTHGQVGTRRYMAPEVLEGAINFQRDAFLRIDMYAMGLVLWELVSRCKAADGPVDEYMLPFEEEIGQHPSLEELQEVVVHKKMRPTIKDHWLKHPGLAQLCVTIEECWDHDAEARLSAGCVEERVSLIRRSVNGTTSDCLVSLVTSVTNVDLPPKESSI
T14 sequence (Q9UK32 426-683 limits assumed): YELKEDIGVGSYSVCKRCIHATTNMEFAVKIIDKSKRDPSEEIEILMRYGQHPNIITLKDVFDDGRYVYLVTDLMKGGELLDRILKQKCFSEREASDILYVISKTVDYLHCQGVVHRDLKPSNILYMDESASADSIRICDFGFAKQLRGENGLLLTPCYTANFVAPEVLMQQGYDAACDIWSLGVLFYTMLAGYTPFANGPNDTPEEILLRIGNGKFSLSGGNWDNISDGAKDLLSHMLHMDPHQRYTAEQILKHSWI
T11 sequence (Q16584 whole entry): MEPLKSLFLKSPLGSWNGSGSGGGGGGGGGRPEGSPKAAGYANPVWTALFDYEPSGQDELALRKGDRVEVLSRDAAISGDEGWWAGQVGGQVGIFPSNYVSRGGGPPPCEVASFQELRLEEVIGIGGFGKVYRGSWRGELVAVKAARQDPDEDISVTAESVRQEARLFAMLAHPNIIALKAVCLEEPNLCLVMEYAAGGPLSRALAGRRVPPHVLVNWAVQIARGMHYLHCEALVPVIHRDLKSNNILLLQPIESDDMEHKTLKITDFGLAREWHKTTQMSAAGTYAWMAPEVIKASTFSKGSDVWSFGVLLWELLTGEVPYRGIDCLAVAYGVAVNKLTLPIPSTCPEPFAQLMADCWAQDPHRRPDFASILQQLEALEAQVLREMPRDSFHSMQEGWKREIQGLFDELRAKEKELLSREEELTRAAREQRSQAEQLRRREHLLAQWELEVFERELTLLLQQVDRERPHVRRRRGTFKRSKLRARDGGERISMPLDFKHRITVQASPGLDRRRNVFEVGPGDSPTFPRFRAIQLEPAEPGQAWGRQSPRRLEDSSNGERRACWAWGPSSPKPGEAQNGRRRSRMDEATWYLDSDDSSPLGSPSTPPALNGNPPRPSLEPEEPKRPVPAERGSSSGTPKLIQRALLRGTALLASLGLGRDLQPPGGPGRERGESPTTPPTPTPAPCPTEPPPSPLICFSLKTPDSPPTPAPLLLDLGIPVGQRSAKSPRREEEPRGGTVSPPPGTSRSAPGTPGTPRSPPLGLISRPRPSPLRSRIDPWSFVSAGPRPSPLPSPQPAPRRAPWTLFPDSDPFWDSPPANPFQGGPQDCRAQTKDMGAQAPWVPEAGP
T7 sequence (P00533 25-1210 G719S): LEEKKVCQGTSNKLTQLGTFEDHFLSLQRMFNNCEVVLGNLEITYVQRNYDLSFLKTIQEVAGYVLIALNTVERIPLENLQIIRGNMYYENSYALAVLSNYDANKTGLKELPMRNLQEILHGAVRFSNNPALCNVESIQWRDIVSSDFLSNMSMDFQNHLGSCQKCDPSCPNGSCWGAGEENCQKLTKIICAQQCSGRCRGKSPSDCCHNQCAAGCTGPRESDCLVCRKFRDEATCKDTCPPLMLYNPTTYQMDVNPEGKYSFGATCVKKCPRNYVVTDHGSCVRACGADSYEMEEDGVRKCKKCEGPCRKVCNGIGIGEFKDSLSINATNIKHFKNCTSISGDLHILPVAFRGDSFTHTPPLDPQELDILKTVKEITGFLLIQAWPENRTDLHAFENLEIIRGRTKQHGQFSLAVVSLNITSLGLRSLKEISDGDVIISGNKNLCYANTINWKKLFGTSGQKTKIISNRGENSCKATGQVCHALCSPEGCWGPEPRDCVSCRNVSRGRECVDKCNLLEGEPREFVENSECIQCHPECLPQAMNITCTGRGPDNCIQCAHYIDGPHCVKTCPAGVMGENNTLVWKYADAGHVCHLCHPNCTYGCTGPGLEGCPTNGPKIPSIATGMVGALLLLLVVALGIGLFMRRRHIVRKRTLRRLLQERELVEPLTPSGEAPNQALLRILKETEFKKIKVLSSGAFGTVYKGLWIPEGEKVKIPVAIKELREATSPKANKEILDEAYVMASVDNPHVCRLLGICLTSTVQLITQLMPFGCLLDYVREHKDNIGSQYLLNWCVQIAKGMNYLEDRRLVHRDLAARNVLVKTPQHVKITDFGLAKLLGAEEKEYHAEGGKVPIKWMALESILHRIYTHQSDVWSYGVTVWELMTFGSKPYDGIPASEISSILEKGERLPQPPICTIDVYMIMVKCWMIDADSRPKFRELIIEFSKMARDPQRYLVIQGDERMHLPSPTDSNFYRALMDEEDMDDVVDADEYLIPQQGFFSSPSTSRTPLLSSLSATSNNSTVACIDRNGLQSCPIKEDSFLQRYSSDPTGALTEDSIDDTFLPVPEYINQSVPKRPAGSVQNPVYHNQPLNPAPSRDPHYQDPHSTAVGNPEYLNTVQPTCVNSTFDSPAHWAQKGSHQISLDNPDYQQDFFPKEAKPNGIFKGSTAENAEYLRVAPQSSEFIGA

COc1cc(C(=O)NCC(=O)Nc2ccc3c(/C=C/c4ccccn4)n[nH]c3c2)cc(OC)c1OC [CHMFL-KIT-031]
KINOMEScan profiling value (ACVR2B): 100
KINOMEScan profiling value (BTK): 100
KINOMEScan profiling value (CDK11): 59
KINOMEScan profiling value (DLK): 97
KINOMEScan profiling value (EGFR): 100
KINOMEScan profiling value (EGFR(G719C)): 100
KINOMEScan profiling value (EGFR(G719S)): 95
KINOMEScan profiling value (EGFR(L747-T751del,Sins)): 100
KINOMEScan profiling value (EGFR(L858R,T790M)): 75
KINOMEScan profiling value (EGFR(S752-I759del)): 92
KINOMEScan profiling value (MARK4): 96
KINOMEScan profiling value (MLK3): 100
KINOMEScan profiling value (MST3): 86
KINOMEScan profiling value (PKMYT1): 91
KINOMEScan profiling value [1]: 100
KINOMEScan profiling value (SIK): 100
KINOMEScan profiling value (ULK3): 89
KINOMEScan profiling value (WNK1): 19
EC50 (KIT V559D [2]; COLO 320DM-KIT-V559D, read-out: EC50 P-CKIT Y719): 239 nM
EC50 (KIT V559D [2]; COLO 320DM-KIT-V559D, read-out: EC50 P-CKIT Y823): 147 nM
EC50 (KIT V559D [2]; Colo320DM cells overexpressing KIT V559D, range over the sites, read-out: EC50 phosphorylation of KIT V559D mutant (Y703, 719 and Y823 sites)): 176 to 339 nM
selectivity compared to KIT wt at the corresponding phosphorylation sites (KIT V559D [2]; Colo320DM cells, EC50): over 10 fold
EC50 (KIT V559D [2]; in cell, KIT V559D, read-out: EC50 pY703): 176 nM
Kd (KIT wt): 6640 nM
Kd (KIT V559D [3]): 266 nM
